Among the data in PubChem BioAssay (NCI) are TGI values, retold here.

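96-well plates; 48 h exposure; 5 concentrations. Endpoints by linear interpolation between flanking doses. Not reached: highest tested concentration assigned. TGI marks complete inhibition of growth.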 Where only a bound is given, the exact number is not on record here.

Assay in all cases: NCI-60 cell line screen, 48 h
For assay [1], the system named is MOLT-4 leukemia.
For assay [2], the system named is NCI-H23 lung.
Assay [3] deals with PC-3 prostate.
The subject of assay [4] is DU-145 prostate.
In assay [5] the test system is UACC-257 melanoma.
The test system of assay [6] is SR leukemia.
The test system of assay [7] is SK-MEL-5 melanoma.
The subject of assay [8] is HS 578T breast.
The test system of assay [9] is MDA-MB-231 breast.
Assay [10] concerns SNB-75 CNS.

With `COC(=O)c1c2c(cc3c1CC1(Cc4cc5c(c(C)c4C1)CCC5)C3)CCC2` (configuration not stated), the TGI in assay [1], in assay [2], in assay [3], in assay [4], in [5] and in [6] was above 100 µM throughout. The TGI in [7], in assay [8] and in assay [9] was above 100 µM each time.

On to `Cc1cc(N2CCCCC2)nc2ccc(Cc3ccc4nc(N5CCCCC5)cc(C)c4c3)cc12`, for which the TGI in assay [1], in assay [2], in [3], in assay [10], in assay [4] and in assay [5] was above 100 µM throughout. The TGI in assay [6], in assay [7], in assay [8] and in assay [9] was above 100 µM throughout.

Turning to `CC(C)(C)c1cc(OCc2nnc3sc(Cc4ccccc4)nn23)c(Cl)cc1OCc1nnc2sc(Cc3ccccc3)nn12`, the TGI was above 100 µM in [1]; above 100 µM in assay [2]; above 100 µM in assay [3]; 84.8 µM in assay [10]; above 100 µM in assay [4]; 63.5 µM in assay [5]. Besides, the TGI in [6] is 70.6 µM; in assay [7] it was 31.7 µM; in assay [8], above 100 µM; in assay [9], 39 µM.

In the case of `Cc1nc2ccc(Br)cc2c(=O)n1-c1ccc(N)cc1`, the TGI in assay [1], in [3], in assay [10], in assay [4], in assay [5] and in assay [6] was above 100 µM in each case. For the same compound, the TGI in assay [7], in assay [8] and in [9] was above 100 µM in each case.

For the compound `O=C1Nc2cccc(Cl)c2/C1=C\c1c(-c2ccccc2)nc2n1CCS2`, the TGI in assay [1] amounted to 39.4 µM; in [2], 88.7 µM; in [3] it was 41.8 µM; in [10], 66.8 µM; in [4] it was 44.9 µM; in assay [5] it was 51.4 µM. Further, the TGI in assay [6] was 53.2 µM; in assay [7], 51.6 µM; in [8], 61.4 µM; in assay [9], 49 µM.

With `O=C1C=CC(=O)c2c1ccc1c3ccccc3n(Cc3ccccc3)c21`, the TGI in assay [1] is above 38.4 µM; in assay [2], 42.7 µM; in assay [3], 53.3 µM; in assay [10] it was above 100 µM; in [4], above 100 µM; in [5], 40.9 µM. The TGI in assay [6] is above 28.7 µM; in assay [7], above 90 µM; in assay [8] it was above 100 µM; in [9], 43.1 µM.

For the compound `O=CC(O)C(O)C(O)C(O)COC(=O)NCCCCC(=O)C(F)(F)C(F)(F)C(F)(F)C(F)(F)C(F)(F)C(F)(F)C(F)(F)F` (configuration not stated), the TGI is 31.1 µM in assay [1]; above 100 µM in [2]; 41.5 µM in assay [3]; 59.5 µM in assay [10]; above 100 µM in assay [4]; above 100 µM in [6]. Further, the TGI in [7] came to 86.8 µM; in assay [8], 64.6 µM; in assay [9], 47.6 µM.

For `O=c1[nH]cc(N=Cc2cc(Cl)ccc2O)c(=O)[nH]1`, the TGI was 63.1 µM in [1]; above 100 µM in assay [2]; above 100 µM in [3]; 66.8 µM in assay [4]; above 100 µM in assay [5]; 24.8 µM in [6]. Besides, the TGI in [7], in [8] and in [9] was above 100 µM in each case.

Take `c1ccc2c(Nc3ncco3)cccc2c1`: the TGI in assay [1], in assay [2], in [3], in assay [10], in [4] and in assay [5] was above 10 µM in each case. In addition, the TGI in assay [6], in [7], in assay [8] and in assay [9] was above 10 µM throughout.

As to `COc1ccc(-n2c(N)c(C#N)c(C#N)c2-c2ccco2)cc1`, the TGI in assay [1], in [2], in assay [3], in [10], in [4] and in assay [5] was above 100 µM each time. The TGI in [6], in assay [7], in [8] and in [9] was above 100 µM throughout.

As for `O=c1[nH]n(CCc2ccccc2CCl)c2ccc([N+](=O)[O-])cc12`, the TGI in [1], in [2], in [3], in [4], in assay [5] and in assay [6] was above 100 µM in each case. In addition, the TGI in assay [7], in assay [8] and in [9] was above 100 µM each time.

As to `O=C1CC(c2ccsc2)n2cccc21` (configuration not stated), the TGI in assay [2], in assay [3], in [10], in assay [4], in assay [5] and in [6] was above 100 µM throughout. Moreover, the TGI in assay [7], in assay [8] and in [9] was above 100 µM each time.

As to `COC(=O)/C=C\n1nc(Br)c(=O)[nH]c1=O`, the TGI in [2], in [3], in [10], in assay [4], in assay [5] and in assay [6] was above 100 µM throughout. The TGI in assay [7], in assay [8] and in assay [9] was above 100 µM each time.

Regarding `CC(c1ccccc1)n1cncc1C(=O)NN1CCN(C)CC1` (configuration not stated), the TGI in assay [1], in assay [2], in assay [3], in assay [4], in assay [5] and in assay [6] was above 10 µM throughout. Further, the TGI in assay [7], in assay [8] and in [9] was above 10 µM in each case.
